In patent US12016958B2, “Method for delivering an agent to posterior segment of an eye and uses thereof” (NANO TARGETING & THERAPY BIOPHARMA INC., priority 2021, dated 2024) one finds Solubility in water data, which are given here for 1 compound.

Molecules are shown by their SMILES.

The nature of the data set: Solubility of AXT in water. The class given is physicochemical.

For the compound `CNC(=O)c1ccccc1Sc1ccc2c(/C=C/c3ccccn3)n[nH]c2c1` [AXT, Axitinib], the Solubility in water result is listed as “poorly soluble in water”.
